The values that follow come from patent publication US3983103A, “N-(Benzenesulfonyl)-erythromycylamine derivatives” (PLIVA Pharmaceutical and Chemical Works, priority 1973, dated 1976).

Common to all, as to assay type: cell-based
Assay [1] relates to Enterococcus. Nature of the assay: antibacterial spectrum in vitro (Table I), MIC.
Excerpt: (§1) The above Table I illustrates antibacterial spectrum in vitro, using some pathogene microorganisms freshly isolated from patients.
Assay [2] deals with Proteus mirabilis. Nature of the assay: antibacterial spectrum in vitro (Table I), MIC.
Assay [3] has as its system E. coli. As to the kind of experiment: antibacterial spectrum in vitro (Table I), MIC.
Assay [4] relates to Streptococcus haemolyticus. Nature of the assay: antibacterial spectrum in vitro (Table I), MIC.
Excerpt: as §1
Assay [5] relates to Klebsiella aerogenes. As to the kind of experiment: antibacterial spectrum in vitro (Table I), MIC.
Excerpt: as §1
Assay [6] relates to Diplococcus pneumoniae. As to the kind of experiment: antibacterial spectrum in vitro (Table I), MIC.
Excerpt: as §1
In assay [7] the test system is Staphylococcus pyog. aureus. As to the kind of experiment: antibacterial spectrum in vitro (Table I), MIC.
Excerpt: as §1
The test system of assay [8] is Pseudomonas aeruginosa. Nature of the assay: antibacterial spectrum in vitro (Table I), MIC.
Excerpt: as §1
Assay [9] concerns Enterococcus 45. Nature of the assay: testing against a set of organisms (Table II), MIC. To be noted: Enterococcus 45, Table II.
The test system of assay [10] is Enterococcus 146. As to the kind of experiment: testing against a set of organisms (Table II), MIC. To be noted: Enterococcus 146, Table II.
Assay [11] deals with Streptococcus haemolyticus 69. As to the kind of experiment: testing against a set of organisms (Table II), MIC. Conditions: Streptococcus haemolyticus 69, Table II.
Assay [12] has as its system Enterococcus 242. Nature of the assay: testing against a set of organisms (Table II), MIC. Conditions: Enterococcus 242, Table II.
The test system of assay [13] is Enterococcus 325. As to the kind of experiment: testing against a set of organisms (Table II), MIC. To be noted: Enterococcus 325, Table II.
The subject of assay [14] is Staphylococcus aureus 372. Nature of the assay: testing against a set of organisms (Table II), MIC. To be noted: Staphylococcus aureus 372, Table II.
The subject of assay [15] is Streptococcus haemolyticus 099. Nature of the assay: testing against a set of organisms (Table II), MIC. To be noted: Streptococcus haemolyticus 099, Table II.
For assay [16], the system named is Staphylococcus aureus 736. Nature of the assay: testing against a set of organisms (Table II), MIC. Conditions: Staphylococcus aureus 736, Table II.

≈ marks a conversion by molar mass, not a printed value.

As to `CC[C@H]1OC(=O)[C@H](C)[C@@H](O[C@H]2C[C@@](C)(OC)[C@@H](O)[C@H](C)O2)[C@H](C)[C@@H](O[C@@H]2O[C@H](C)C[C@H](N(C)C)[C@H]2O)[C@](C)(O)C[C@@H](C)C(=O)[C@H](C)[C@@H](O)[C@]1(C)O` [E, erythromycin, reference compound], the MIC in [1] was determined as 31.2 µg/mL (≈ 42.5 µM); in assay [2], 500 µg/mL (≈ 681 µM); in assay [3], 250 µg/mL (≈ 341 µM); in assay [4], 31.2 µg/mL (≈ 42.5 µM); in [5] it was 500 µg/mL (≈ 681 µM); in assay [6], 62.5 µg/mL (≈ 85.2 µM). Also, the MIC is 62.5 µg/mL (≈ 85.2 µM) in [7] and 500 µg/mL (≈ 681 µM) in [8].
For the compound `CCC1OC(=O)C(C)C(OC2CC(C)(OC)C(O)C(C)O2)C(C)C(OC2OC(C)CC(N(C)C)C2O)C(C)(O)CC(C)C(NS(=O)(=O)c2ccc(NC(C)=O)cc2)C(C)C(O)C1(C)O` (stereo not drawn) [EAAc, N-(4-acetylamino-benzenesulfonyl)erythromycylamine], the MIC was 1.9 µg/mL (≈ 2.04 µM) in assay [1]; 125 µg/mL (≈ 134 µM) in [2]; 125.0 µg/mL (≈ 134 µM) in [9]; 31.2 µg/mL (≈ 33.5 µM) in assay [10]; 0.9 µg/mL (≈ 0.965 µM) in assay [11]; 62.5 µg/mL (≈ 67 µM) in assay [12]. Further, the MIC in assay [13] was 62.5 µg/mL (≈ 67 µM); in [14] it was 15.6 µg/mL (≈ 16.7 µM); in [4] it was 0.45 µg/mL (≈ 0.483 µM); in assay [15], 1.9 µg/mL (≈ 2.04 µM); in [5], 62.5 µg/mL (≈ 67 µM); in [6], 1.9 µg/mL (≈ 2.04 µM). Also, the MIC was found to be 15.6 µg/mL (≈ 16.7 µM) in assay [7], 31.2 µg/mL (≈ 33.5 µM) in assay [16] and 250.0 µg/mL (≈ 268 µM) in assay [8].
Take `CCC1OC(=O)C(C)C(OC2CC(C)(OC)C(O)C(C)O2)C(C)C(OC2OC(C)CC(N(C)C)C2O)C(C)(O)CC(C)C(NS(=O)(=O)c2ccc(Br)cc2)C(C)C(O)C1(C)O` (stereo not drawn) [EABr, N-(4-bromo-benzenesulfonyl)erythromycylamine]: the MIC in assay [1] turned out to be 1.9 µg/mL (≈ 1.99 µM); in assay [2] it was 250 µg/mL (≈ 262 µM); in [9], 7.8 µg/mL (≈ 8.18 µM); in [10], 3.9 µg/mL (≈ 4.09 µM); in assay [11], 0.9 µg/mL (≈ 0.943 µM); in assay [12], 3.9 µg/mL (≈ 4.09 µM). The minimal inhibitory concentration (MIC) is 125.0 µg/mL (≈ 131 µM) in assay [3]; 3.9 µg/mL (≈ 4.09 µM) in assay [13]; 3.9 µg/mL (≈ 4.09 µM) in assay [14]; 0.9 µg/mL (≈ 0.943 µM) in assay [4]; 0.9 µg/mL (≈ 0.943 µM) in assay [15]; 62.5 µg/mL (≈ 65.5 µM) in [5]. In addition, the MIC in assay [6] is 3.9 µg/mL (≈ 4.09 µM); in assay [7] it was 31.2 µg/mL (≈ 32.7 µM); in assay [16], 7.8 µg/mL (≈ 8.18 µM); in assay [8], 250.0 µg/mL (≈ 262 µM).
For `CCC1OC(=O)C(C)C(OC2CC(C)(OC)C(O)C(C)O2)C(C)C(OC2OC(C)CC(N(C)C)C2O)C(C)(O)CC(C)C(NS(=O)(=O)c2ccc(Cl)cc2)C(C)C(O)C1(C)O` (stereo not drawn) [EACl, N-(4-chloro-benzenesulfonyl)erythromycylamine], the MIC was 3.9 µg/mL (≈ 4.29 µM) in [1]; 250 µg/mL (≈ 275 µM) in [2]; 3.9 µg/mL (≈ 4.29 µM) in [9]; 7.8 µg/mL (≈ 8.58 µM) in assay [10]; 0.9 µg/mL (≈ 0.989 µM) in assay [11]; 3.9 µg/mL (≈ 4.29 µM) in assay [12]. Besides, the MIC in assay [3] was 62.5 µg/mL (≈ 68.7 µM); in assay [13], 7.8 µg/mL (≈ 8.58 µM); in [14], 3.9 µg/mL (≈ 4.29 µM); in assay [4] it was 0.9 µg/mL (≈ 0.989 µM); in [15], 0.9 µg/mL (≈ 0.989 µM); in [5] it was 125 µg/mL (≈ 137 µM). In addition, the minimum inhibitory concentration (MIC) turned out to be 1.9 µg/mL (≈ 2.09 µM) in assay [6], 31.2 µg/mL (≈ 34.3 µM) in assay [7], 31.2 µg/mL (≈ 34.3 µM) in assay [16] and 250.0 µg/mL (≈ 275 µM) in [8].
For the compound `CCc1ccc(S(=O)(=O)NC2C(C)CC(C)(O)C(OC3OC(C)CC(N(C)C)C3O)C(C)C(OC3CC(C)(OC)C(O)C(C)O3)C(C)C(=O)OC(CC)C(C)(O)C(O)C2C)cc1` (stereo not drawn) [EAE, N-(4-ethyl-benzenesulfonyl)erythromycylamine], the MIC in assay [9] came to 7.8 µg/mL (≈ 8.64 µM); in [10] it was 7.8 µg/mL (≈ 8.64 µM); in [11], 0.9 µg/mL (≈ 0.996 µM); in assay [12] it was 3.9 µg/mL (≈ 4.32 µM); in [13] it was 3.9 µg/mL (≈ 4.32 µM); in [14] it was 7.8 µg/mL (≈ 8.64 µM). Moreover, the minimum inhibitory concentration (MIC) was found to be 0.9 µg/mL (≈ 0.996 µM) in assay [15] and 31.2 µg/mL (≈ 34.5 µM) in assay [16].
Regarding `CCC1OC(=O)C(C)C(OC2CC(C)(OC)C(O)C(C)O2)C(C)C(OC2OC(C)CC(N(C)C)C2O)C(C)(O)CC(C)C(NS(=O)(=O)c2ccc(F)cc2)C(C)C(O)C1(C)O` (stereo not drawn) [EAF, N-(4-fluoro-benzenesulfonyl)erythromycylamine], the MIC was 7.8 µg/mL (≈ 8.73 µM) in assay [9]; 7.8 µg/mL (≈ 8.73 µM) in assay [10]; 3.9 µg/mL (≈ 4.37 µM) in assay [11]; 3.9 µg/mL (≈ 4.37 µM) in [12]; 7.8 µg/mL (≈ 8.73 µM) in assay [13]; 15.6 µg/mL (≈ 17.5 µM) in assay [14]. In addition, the MIC in assay [15] is less than 0.9 µg/mL; in [16], 31.2 µg/mL (≈ 34.9 µM).
With `CCC1OC(=O)C(C)C(OC2CC(C)(OC)C(O)C(C)O2)C(C)C(OC2OC(C)CC(N(C)C)C2O)C(C)(O)CC(C)C(NS(=O)(=O)c2ccc(I)cc2)C(C)C(O)C1(C)O` (stereo not drawn) [EAI, N-(4-iodo-benzenesulfonyl)erythromycylamine], the MIC in assay [9] was determined as 7.8 µg/mL (≈ 7.79 µM); in assay [10], 3.9 µg/mL (≈ 3.9 µM); in assay [11], 0.9 µg/mL (≈ 0.899 µM); in assay [12], 7.8 µg/mL (≈ 7.79 µM); in assay [13] it was 3.9 µg/mL (≈ 3.9 µM); in [14], 3.9 µg/mL (≈ 3.9 µM). In addition, the results for the MIC in assay [15] and in assay [16] were 0.9 µg/mL (≈ 0.899 µM) and 15.6 µg/mL (≈ 15.6 µM), respectively.
For `CCC(=O)Nc1ccc(S(=O)(=O)NC2C(C)CC(C)(O)C(OC3OC(C)CC(N(C)C)C3O)C(C)C(OC3CC(C)(OC)C(O)C(C)O3)C(C)C(=O)OC(CC)C(C)(O)C(O)C2C)cc1` (stereo not drawn) [EAPr, N-(4-propionylamino-benzenesulfonyl)erythromycylamine], the MIC in assay [9] was determined as 62.5 µg/mL (≈ 66.1 µM); in [10], 7.8 µg/mL (≈ 8.24 µM); in assay [11] it was 0.9 µg/mL (≈ 0.951 µM); in assay [12] it was 31.2 µg/mL (≈ 33 µM); in assay [13], 62.5 µg/mL (≈ 66.1 µM); in [14], 15.6 µg/mL (≈ 16.5 µM). Also, the results for the MIC in [15] and in assay [16] were 0.9 µg/mL (≈ 0.951 µM) and 15.6 µg/mL (≈ 16.5 µM), respectively.
As to `CCC1OC(=O)C(C)C(OC2CC(C)(OC)C(O)C(C)O2)C(C)C(OC2OC(C)CC(N(C)C)C2O)C(C)(O)CC(C)C(NS(=O)(=O)c2ccc(C)cc2)C(C)C(O)C1(C)O` (stereo not drawn) [EAT, N-(4-methyl-benzenesulfonyl)erythromycylamine], the MIC turned out to be 3.9 µg/mL (≈ 4.39 µM) in assay [1]; 250 µg/mL (≈ 281 µM) in [2]; 7.8 µg/mL (≈ 8.77 µM) in assay [9]; 7.8 µg/mL (≈ 8.77 µM) in assay [10]; 0.9 µg/mL (≈ 1.01 µM) in assay [11]; 3.9 µg/mL (≈ 4.39 µM) in assay [12]. The MIC was found to be 62.2 µg/mL (≈ 70 µM) in assay [3]; 7.8 µg/mL (≈ 8.77 µM) in assay [13]; 7.8 µg/mL (≈ 8.77 µM) in assay [14]; 0.9 µg/mL (≈ 1.01 µM) in assay [4]; 0.9 µg/mL (≈ 1.01 µM) in assay [15]; 250 µg/mL (≈ 281 µM) in assay [5]. Moreover, the MIC in assay [6] was 1.9 µg/mL (≈ 2.14 µM); in assay [7], 31.2 µg/mL (≈ 35.1 µM); in assay [16], 15.6 µg/mL (≈ 17.5 µM); in assay [8] it was 250.0 µg/mL (≈ 281 µM).
On to `CCC1OC(=O)C(C)C(OC2CC(C)(OC)C(O)C(C)O2)C(C)C(OC2OC(C)CC(N(C)C)C2O)C(C)(O)CC(C)C(NS(=O)(=O)c2ccccc2C)C(C)C(O)C1(C)O` (stereo not drawn) [o-EAT, N-(2-methyl-benzenesulfonyl)erythromycylamine], for which the MIC in assay [9] was found to be 7.8 µg/mL (≈ 8.77 µM); in assay [10], 15.6 µg/mL (≈ 17.5 µM); in assay [11], 0.9 µg/mL (≈ 1.01 µM); in assay [12] it was 3.9 µg/mL (≈ 4.39 µM); in assay [13] it was 7.8 µg/mL (≈ 8.77 µM); in assay [14], 15.6 µg/mL (≈ 17.5 µM). Further, the minimal inhibitory concentration (MIC) was 1.9 µg/mL (≈ 2.14 µM) in [15] and 31.2 µg/mL (≈ 35.1 µM) in [16].

A word on the MIC: it is the lowest concentration that inhibits growth of the organism. The low end stands for inhibition by little substance, the high end for a need for much substance.
